# Biological target: SSTR4 (Homo sapiens, UniProt P31391)
# Assay: cell-based
# 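Also: CHO-K1 cells overexpressing SSTR4, reduction of forskolin-driven cAMP after 30 min compound exposure at room temperature, cAMP read by HTRF LANCE Ultra kit.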
# SSTR4, sequence (P31391 whole entry): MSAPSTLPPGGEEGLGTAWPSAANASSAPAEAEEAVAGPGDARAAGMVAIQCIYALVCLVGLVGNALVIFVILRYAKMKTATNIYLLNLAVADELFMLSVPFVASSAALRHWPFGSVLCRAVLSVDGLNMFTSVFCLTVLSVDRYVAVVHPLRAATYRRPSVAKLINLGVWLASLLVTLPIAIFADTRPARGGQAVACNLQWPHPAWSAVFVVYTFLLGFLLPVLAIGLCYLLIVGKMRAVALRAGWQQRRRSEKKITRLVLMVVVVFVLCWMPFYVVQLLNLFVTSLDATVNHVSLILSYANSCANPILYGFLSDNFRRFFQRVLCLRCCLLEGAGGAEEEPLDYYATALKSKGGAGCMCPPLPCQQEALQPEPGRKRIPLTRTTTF
row,Structure (SMILES),EC50 [µM]
1,"CC1CN(C)CCC1Nc1ncc(C(F)(F)F)nc1Cc1ccc(F)cc1 (mixture of isomers) [Example 91, N-(1,3-dimethylpiperidin-4-yl)-3-(4-fluorobenzyl)-5-(trifluoromethyl)pyrazin-2-amine]",0.661
2,"CC1CN(C)CCC1Nc1ncc(C(N)=O)cc1Cc1ccc(F)cc1 (mixture of isomers) [Example 102, 6-((1,3-dimethylpiperidin-4-yl)amino)-5-(4-fluorobenzyl)nicotinamide]",0.398
3,"CC[C@@H]1CN(C)CC[C@H]1Nc1ncc(C(=O)NC)nc1Cc1ccc(F)cc1 (racemic) [Example 36, 5-((trans-3-ethyl-1-methylpiperidin-4-yl)amino)-6-(4-fluorobenzyl)-N-methylpyrazine-2-carboxamide]",0.224
4,"Cc1nc(N[C@@H]2CCN(C)C[C@H]2C)c(Cc2ccc(F)cc2)nc1C(=O)N(C)C (racemic) [Example 47, 5-((trans-1,3-dimethylpiperidin-4-yl)amino)-6-(4-fluorobenzyl)-N,N,3-trimethylpyrazine-2-carboxamide]",0.0479
5,"CC[C@@H]1CN(C)CC[C@H]1Nc1ncc(C(F)(F)F)nc1Cc1ccc(F)cc1 (racemic) [Example 95, N-(trans-3-ethyl-1-methylpiperidin-4-yl)-3-(4-fluorobenzyl)-5-(trifluoromethyl)pyrazin-2-amine]",0.741
6,"Fc1ccc(Cc2nccnc2N[C@@H]2CCNC[C@H]2F)cc1 (racemic) [Example 115, 3-(4-fluorobenzyl)-N-(trans-3-fluoropiperidin-4-yl)pyrazin-2-amine]",0.219
7,"Cc1cccc2nc(Cc3ccccc3)c(NCCN3CCC3)nc12 (single isomer, unassigned) [Example 2, N-(2-(azetidin-1-yl)ethyl)-3-benzyl-8-methylquinoxalin-2-amine]",0.0676
8,"Cc1cccc2nc(NCCN3CCC3)c(Cc3ccccc3)nc12 (single isomer, unassigned) [Example 3, N-(2-(azetidin-1-yl)ethyl)-3-benzyl-5-methylquinoxalin-2-amine]",0.457
9,"COc1cccc(Cc2nc3c(C)cccc3nc2NCCN2CCC2)c1 (single isomer, unassigned) [Example 5, N-(2-(azetidin-1-yl)ethyl)-3-(3-methoxybenzyl)-5-methylquinoxalin-2-amine]",0.331
10,"C[C@@H](c1ccc(F)cc1)c1nc(C(N)=O)cnc1NCCN1CCCC1 (single isomer, unassigned) [Example 20]",0.708
11,"C[C@@H](c1ccc(F)cc1)c1nc(C(N)=O)cnc1N[C@@H]1CCN(C)C1 (single isomer, unassigned) [Example 31]",0.331
12,"CNC(=O)c1cnc(N[C@@H]2CCN(C)C2)c([C@@H](C)c2ccc(F)cc2)n1 (single isomer, unassigned) [Example 34]",0.537
13,"CNC(=O)c1cnc(N[C@@H]2CCN(C)C2)c([C@H](C)c2ccc(F)cc2)n1 (single isomer, unassigned) [Example 35]",1.2
14,"C[C@H]1C[C@H](Nc2nccnc2Cc2ccc(F)cc2)CCN1C (single isomer, unassigned) [Example 113, N-(trans-1,2-dimethylpiperidin-4-yl)-3-(4-fluorobenzyl)pyrazin-2-amine]",0.813
15,"C[C@H]1C[C@@H](Nc2nccnc2Cc2ccc(F)cc2)CCN1C (single isomer, unassigned) [Example 114, N-(cis-1,2-dimethylpiperidin-4-yl)-3-(4-fluorobenzyl)pyrazin-2-amine]",0.575
16,"C[C@@H](c1ccc(F)cc1)c1nccnc1NCCN1CCCC1 (single isomer, unassigned) [Example 122]",0.575
17,"Cc1nnc([C@@H](C)c2ccc(F)cc2)c(N[C@@H]2CCN(C)C2)n1 (single isomer, unassigned) [Example 142]",0.12
18,"Cc1nnc([C@@H](C)c2ccc(F)cc2)c(N[C@H]2CCN(C)C2)n1 (single isomer, unassigned) [Example 147]",0.224
19,"Cc1nnc([C@@H](C)c2ccccc2)c(N[C@@H]2CCN(C)C2)n1 (single isomer, unassigned) [Example 150]",0.363

# From US12428403B2, “N-(heterocyclyl and heterocyclylalkyl)-3-benzylpyridin-2-amine derivatives as SSTR4 agonists” (Takeda Pharmaceutical Company Limited, priority 2020, dated 2025)
